The target of one assay is T1, hNCC(T352I) (Homo sapiens, UniProt P55017, T352I).
T1 construct: expressed in transfected cells
T1 sequence (P55017 1-1021 T352I): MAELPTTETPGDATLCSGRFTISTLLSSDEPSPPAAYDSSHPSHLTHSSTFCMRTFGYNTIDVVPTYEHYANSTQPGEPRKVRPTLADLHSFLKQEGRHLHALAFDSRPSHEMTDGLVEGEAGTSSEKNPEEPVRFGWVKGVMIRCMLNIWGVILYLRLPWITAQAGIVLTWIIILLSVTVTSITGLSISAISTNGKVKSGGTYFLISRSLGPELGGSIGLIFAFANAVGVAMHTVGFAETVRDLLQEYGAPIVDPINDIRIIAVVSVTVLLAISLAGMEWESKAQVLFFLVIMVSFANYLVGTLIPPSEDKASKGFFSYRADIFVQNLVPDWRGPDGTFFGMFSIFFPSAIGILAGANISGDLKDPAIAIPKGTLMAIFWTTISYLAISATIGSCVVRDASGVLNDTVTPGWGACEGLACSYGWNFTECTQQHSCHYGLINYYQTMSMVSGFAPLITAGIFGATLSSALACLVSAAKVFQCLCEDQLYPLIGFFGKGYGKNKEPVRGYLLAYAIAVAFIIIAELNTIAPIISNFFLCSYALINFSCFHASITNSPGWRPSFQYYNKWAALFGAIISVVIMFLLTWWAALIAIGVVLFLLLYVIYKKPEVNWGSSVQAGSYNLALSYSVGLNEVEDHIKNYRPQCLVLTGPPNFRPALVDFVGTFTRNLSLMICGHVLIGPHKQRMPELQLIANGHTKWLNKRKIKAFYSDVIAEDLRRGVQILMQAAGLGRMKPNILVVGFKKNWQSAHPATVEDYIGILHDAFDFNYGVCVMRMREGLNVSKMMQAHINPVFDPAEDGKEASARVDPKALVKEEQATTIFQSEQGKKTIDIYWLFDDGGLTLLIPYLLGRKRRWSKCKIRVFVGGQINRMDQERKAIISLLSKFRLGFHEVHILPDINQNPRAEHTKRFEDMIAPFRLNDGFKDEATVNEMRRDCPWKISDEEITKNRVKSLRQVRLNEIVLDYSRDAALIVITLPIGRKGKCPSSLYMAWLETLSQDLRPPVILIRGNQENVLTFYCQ
In words: 125I- uptake assay, hNCC(T352I) variant. Conditions: 100 μM polythiazide. In kind it is cell-based. Here is the method: (§1) HEK293S cell lines, cultured in 293 Freestyle medium (Life Technologies; plus 10% fetal bovine serum), stably expressing hNCC and its variants were generated following published protocols. Cells were transfected using Lipofectamine 3000 (Invitrogen) with a pSBbi-RP-based plasmid containing hNCC or its variants and the SB100X vector. Puromycin (2 μg/mL; Gemini Bio-Products) was used for selection of stable cell lines.
(§2) To prepare for the uptake experiment, cells were plated at 0.5 × 10^6 cells/well in 24-well plates one day in advance. To activate NCC, cells were treated with a chloride-free hypotonic solution composed of 67.5 mM sodium-, 2.5 mM potassium-, 0.25 mM magnesium-, and 0.25 mM calcium-gluconate, as well as 7.5 mM HEPES pH 7.4 (buffered using Tris) at 37 °C for 10 min[72]. After the activation step, the experiments were carried out at room temperature. Ten minutes before the start of ^125I^− uptake, 70 μM Bumetanide (Thermo Scientific Chemicals) and 100 μM 4,4′-diisothiocyanatostilbene-2,2′-disulfonic acid (DIDS; Sigma) were added to suppress background iodide uptake activity. Indicated thiazide diuretics were also added to the indicated concentrations 10 min before the start of ^125I^− uptake. […] Cells lysed using 1% sodium dodecyl sulfate (SDS) were analyzed by scintillation counting.

The next assay addresses T2, hNCC(H234N) (Homo sapiens, UniProt P55017, H234N).
T2 construct: expressed in transfected cells
T2 sequence (P55017 1-1021 H234N): T1 sequence (P55017 1-1021 T352I) with H234N, I352T
Kind of assay: 125I- uptake assay, hNCC(H234N) variant. The assay is classed as cell-based. Conditions: 100 μM polythiazide. The protocol:
as §1, §2

Substitutions are numbered along the chain they refer to. Entries after “also recorded” stand apart in the source; their conditions may differ.

Turning to `CN1C(CSCC(F)(F)F)Nc2cc(Cl)c(S(N)(=O)=O)cc2S1(=O)=O` (centres unmarked) [polythiazide], the “inhibition of transport activity” value at hNCC(T352I) and on hNCC(H234N) was “fully inhibited; also recorded: completely inhibited” each time.

Source of the values: article PMC12365235, “Molecular mechanisms of thiazide-like diuretics-mediated inhibition of the human Na-Cl cotransporter” (Nature Communications, 2025).
